Experimental data published in patent US9566312B2, “Cyclic peptides and use as medicines” (priority 2012, dated 2017).
Read-outs that look alike come from different tables or passages of the source. Starred links: 1 amine or outer side, 2 acyl side, 3 side chain; linkers in the order of their positions; H or OH if unused. Non-standard residues stand in square brackets, D forms with d. Residues, ends and D or L forms follow the SMILES beside them. X10 = C[C@H](CCCOC(=O)NC1CCN(C)CC1)[C@@H](C(=O)[*:2])N(C)[*:1]; X70 = C[C@H](CCCOC(=O)N1CCN(C)CC1)[C@@H](C(=O)[*:2])N(C)[*:1]; X33 = CC(C)N1CCOC(COC[C@@H](C)[C@@H](C(=O)[*:2])N(C)[*:1])C1; X1 = COC[C@@H]1CN(C[C@H](C)[C@@H](C(=O)[*:2])N(C)[*:1])CCO1; X62 = COCCN1CCN(CCC[C@@H](C)[C@@H](C(=O)[*:2])N(C)[*:1])CC1; X22 = C[C@H](CN1CCN(C2CCC2)CC1)[C@@H](C(=O)[*:2])N(C)[*:1]; NMe(dihydroBmt) = CCCC[C@@H](C)[C@@H](O)[C@H](NC)C(=O)O; X17 = C[C@H](COCC(C)(C)O)[C@@H](C(=O)[*:2])N(C)[*:1]; X76 = CO[C@H](CN1CCOCC1)[C@@H](C(=O)[*:2])N(C)[*:1]; X9 = C[C@@H](CN1CCOCC1)[C@@H](C(=O)[*:2])N(C)[*:1]; MeBmt = C/C=C/C[C@@H](C)[C@@H](O)[C@H](NC)C(=O)O; NMeL = CN[C@@H](CC(C)C)C(=O)O; NMeV = CN[C@H](C(=O)O)C(C)C; dNMeA = CN[C@H](C)C(=O)O; Abu = CC[C@H](N)C(=O)O

How the values were obtained:
[1] = tested on: peripheral blood mononuclear cells (PBMC); assay: Anti-proliferative or immunosuppressive activity, BrdU incorporation in PHA-stimulated PBMC; assay type: cell-based; conditions: PHA 3 μg/ml, 60 hour compound treatment; read-out: EMV PBMC IC50
In short: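 BrdU ELISA read-out of DNA synthesis in freshly isolated PBMCs (two donors, 30,000 cells/well, X-VIVO 15). T-cell proliferation triggered with phytohemagglutinin at 3 μg/ml.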

[2] = target: CypF (Homo sapiens (Human), UniProt P30405); assay: Inhibitor binding to cyclophilin proteins by SPR, CypF; conditions: 1:1 binding model
Sequence of CypF (P30405 30-207): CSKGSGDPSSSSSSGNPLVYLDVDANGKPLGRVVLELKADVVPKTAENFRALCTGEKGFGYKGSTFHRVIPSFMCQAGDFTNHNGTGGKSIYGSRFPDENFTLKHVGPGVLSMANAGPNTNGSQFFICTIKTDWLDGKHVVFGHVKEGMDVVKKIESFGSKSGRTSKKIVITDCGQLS
In short: (§1)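 Running buffer: 10 mM HEPES pH 7.4, 150 mM NaCl, 0.05% P20, 3% DMSO, with compound present. Capture of avi-tagged mono-biotinylated cyclophilin; single-cycle series, 1 min contact, 10 min dissociation. Rates and affinity fitted to a 1:1 interaction model.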

[3] = target: cyclophilin A (CypA) (Homo sapiens (Human), UniProt P62937); assay: Inhibitor binding to cyclophilin proteins by SPR, CypA; set-up: unit not given here; conditions: 1:1 binding model;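 also: Single-cycle kinetics on a Biacore T200, compound injected at several concentrations for 1 min each at 50 µL/min, then 10 min dissociation, in HEPES pH 7.4 buffer with 3% DMSO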
Sequence of cyclophilin A (CypA) (P62937 whole entry): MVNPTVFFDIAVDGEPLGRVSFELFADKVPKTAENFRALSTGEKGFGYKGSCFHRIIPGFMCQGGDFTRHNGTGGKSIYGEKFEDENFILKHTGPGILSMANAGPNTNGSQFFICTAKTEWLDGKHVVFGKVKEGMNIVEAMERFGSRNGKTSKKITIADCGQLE

[4] = target: CYP3A4 (Homo sapiens (Human), UniProt P08684); assay: Time-dependent inhibition of CYP3A4;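 also: Two-step in vitro assay, kobs derived from residual CYP3A4 activity versus preincubation time per concentration, then kinact and KI by nonlinear fit of kobs against concentration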
Sequence of CYP3A4 (P08684 whole entry): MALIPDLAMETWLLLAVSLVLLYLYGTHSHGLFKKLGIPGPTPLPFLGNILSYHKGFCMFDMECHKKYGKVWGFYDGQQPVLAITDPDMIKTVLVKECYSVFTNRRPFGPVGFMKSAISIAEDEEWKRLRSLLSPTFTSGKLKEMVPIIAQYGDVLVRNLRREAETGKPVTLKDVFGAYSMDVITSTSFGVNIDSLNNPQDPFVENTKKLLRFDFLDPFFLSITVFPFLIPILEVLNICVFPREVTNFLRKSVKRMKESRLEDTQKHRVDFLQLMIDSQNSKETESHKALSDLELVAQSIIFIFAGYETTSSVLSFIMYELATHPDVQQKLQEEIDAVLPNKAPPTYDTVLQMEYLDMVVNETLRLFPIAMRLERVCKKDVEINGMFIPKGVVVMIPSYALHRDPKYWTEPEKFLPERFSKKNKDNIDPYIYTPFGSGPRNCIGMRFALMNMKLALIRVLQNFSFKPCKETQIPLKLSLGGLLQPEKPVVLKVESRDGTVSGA

[5] = target: cyclophilin B (CypB) (Homo sapiens (Human), UniProt P23284); assay: Inhibitor binding to cyclophilin proteins by SPR, CypB; set-up: unit not given here; conditions: 1:1 binding model
Sequence of cyclophilin B (CypB) (P23284 34-216): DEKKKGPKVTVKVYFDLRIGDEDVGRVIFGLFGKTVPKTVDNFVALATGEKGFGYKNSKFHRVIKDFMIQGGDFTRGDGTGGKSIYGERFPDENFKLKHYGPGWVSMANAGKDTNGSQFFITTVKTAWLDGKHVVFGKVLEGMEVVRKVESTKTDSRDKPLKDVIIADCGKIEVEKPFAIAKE
In short: as §1

[6] = tested on: genotype 1b subgenomic HCV replicon in Huh7.5 cells; assay type: cell-based, hepatitis C virus; conditions: read-out: RPLN-1b IC50
In short: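 Replicon inhibition read as renilla luciferase signal versus DMSO controls after 72 h incubation, in Huh7.5 cells harbouring a genotype 1b subgenomic replicon; medium phenol red-free DMEM lacking G418. CC50 determined in parallel via Cell Titer-Glo.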

[7] = target: organic anion transporting polypeptide 1B1 (OATP1B1) (Homo sapiens (Human), UniProt Q9Y6L6); assay: OATP assay in CHO-OATP1B1 cells;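 also: inhibition of probe substrate uptake into the cells, ten minutes exposure, accumulated substrate read by fluorescence once cells were lysed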
Sequence of organic anion transporting polypeptide 1B1 (OATP1B1) (Q9Y6L6 whole entry): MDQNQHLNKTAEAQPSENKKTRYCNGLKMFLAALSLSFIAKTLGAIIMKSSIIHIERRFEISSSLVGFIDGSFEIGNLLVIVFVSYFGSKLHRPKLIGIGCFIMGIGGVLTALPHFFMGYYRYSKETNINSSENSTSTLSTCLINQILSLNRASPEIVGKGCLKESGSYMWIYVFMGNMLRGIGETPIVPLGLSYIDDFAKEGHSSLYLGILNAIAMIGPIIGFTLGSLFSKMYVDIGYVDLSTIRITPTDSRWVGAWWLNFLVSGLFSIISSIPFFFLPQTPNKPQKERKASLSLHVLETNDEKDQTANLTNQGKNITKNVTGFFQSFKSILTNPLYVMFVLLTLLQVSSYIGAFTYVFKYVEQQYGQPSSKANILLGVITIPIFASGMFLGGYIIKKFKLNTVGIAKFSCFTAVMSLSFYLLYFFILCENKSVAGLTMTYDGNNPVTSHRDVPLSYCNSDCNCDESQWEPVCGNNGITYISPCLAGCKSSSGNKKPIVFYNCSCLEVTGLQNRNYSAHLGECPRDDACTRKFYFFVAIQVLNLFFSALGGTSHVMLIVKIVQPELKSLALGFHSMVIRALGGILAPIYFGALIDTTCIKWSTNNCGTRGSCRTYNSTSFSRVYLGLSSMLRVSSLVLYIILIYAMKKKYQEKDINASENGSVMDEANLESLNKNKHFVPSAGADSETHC

[8] = genotype 1b replicon, 72 h incubation

Row | Structure (SMILES) | IC50 [1] [nM] | CypF Kd [2] [nM] | CypA Kd [3] | Ki [4] [nM] | CypB Kd [5] | IC50 [6, 8] [nM] | KI (inactivation) [4] [nM] | IC50 [6] [nM] | NIM TDI kinact/Ki ([4]; probe substrate midazolam) [M⁻¹ s⁻¹] | IC50 [7] [nM]
1 | C/C=C/C[C@@H](C)[C@@H](O)[C@H]1C(=O)N[C@@H](CC)C(=O)N(C)[C@H](C)C(=O)N(C)[C@@H]([C@H](C)CCN2CCOCC2)C(=O)N[C@@H](C(C)C)C(=O)N(C)[C@@H](CC(C)C)C(=O)N[C@@H](C)C(=O)N[C@H](C)C(=O)N(C)[C@@H](CC(C)C)C(=O)N(C)[C@@H](CC(C)C)C(=O)N(C)[C@@H](C(C)C)C(=O)N1C (stereo in doubt) [Compound 2.18.1, 3-[D-Ala]-4-[(2S,3R)-3-methyl-2-(methylamino)-5-morpholinopentanoyl]-cyclosporin] | 16200 | 0.9 | 1.5 | > 50000 | 0.8 | 22 |  |  |  | 
2 | C/C=C/C[C@@H](C)[C@@H](O)[C@H]1C(=O)N[C@@H](CC)C(=O)N(C)[C@H](CCCN2CCOCC2)C(=O)N(C)[C@@H]([C@H](C)CS(C)(=O)=O)C(=O)N[C@@H](C(C)C)C(=O)N(C)[C@@H](CC(C)C)C(=O)N[C@@H](C)C(=O)N[C@H](C)C(=O)N(C)[C@@H](CC(C)C)C(=O)N(C)[C@@H](CC(C)C)C(=O)N(C)[C@@H](C(C)C)C(=O)N1C (stereo in doubt) [Compound 3.4.2, 3-[(R)-2-(methylamino)-5-morpholinopentanoyl]-4-[(2S,3S)-3-methyl-2-(methylamino)-4-(methylsulfonyl)butanoyl]-cyclosporin] | 13800 | 5 | 8.7 | > 50000 | 4.4 | 1300 |  |  |  | 
3 | CCCC[C@@H](C)[C@@H](O)[C@H]1C(=O)N[C@@H](CC)C(=O)N(C)[C@H](C)C(=O)N(C)[C@@H]([C@H](C)CN2CCN(C3CCC3)CC2)C(=O)N[C@@H](C(C)C)C(=O)N(C)[C@@H](CC(C)C)C(=O)N[C@@H](C)C(=O)N[C@H](C)C(=O)N(C)[C@@H](CC(C)C)C(=O)N(C)[C@@H](CC(C)C)C(=O)N(C)[C@@H](C(C)C)C(=O)N1C [Compound 2.5.15, 1-dihydro-3-[D-Ala]-4[(2S,3R)-2-Amino-4-(4-cyclobutyl-piperazin-1-yl)-butanoyl]-cyclosporin] (cyclo([NMe(dihydroBmt)][Abu][dNMeA][X22]V[NMeL]A[dA][NMeL][NMeL][NMeV])) | 7600 | 0.6 | 1.4 |  | 0.7 |  | > 50000 | 18 |  | 
4 | C/C=C/C[C@@H](C)[C@@H](O)[C@H]1C(=O)N[C@@H](CC)C(=O)N(C)[C@H](C)C(=O)N(C)[C@@H]([C@H](C)COCC(C)(C)O)C(=O)N[C@@H](C(C)C)C(=O)N(C)[C@@H](CC(C)C)C(=O)N[C@@H](C)C(=O)N[C@H](C)C(=O)N(C)[C@@H](CC(C)C)C(=O)N(C)[C@@H](CC(C)C)C(=O)N(C)[C@@H](C(C)C)C(=O)N1C [Compound 2.7, 3-[D-Ala]-4-[(2S,3S)-4-(2-hydroxy-2-methylpropoxy)-3-methyl-2-(methylamino)butanoyl]-cyclosporin] (cyclo(A[dA][NMeL][NMeL][NMeV][MeBmt][Abu][dNMeA][X17]V[NMeL])) |  | 0.9 | 2.5 |  | 1.2 |  |  |  | 25 | 1800
5 | CCCC[C@@H](C)[C@@H](O)[C@H]1C(=O)N[C@@H](CC)C(=O)N(C)[C@H](C)C(=O)N(C)[C@@H]([C@@H](C)CN2CCOCC2)C(=O)N[C@@H](C(C)C)C(=O)N(C)[C@@H](CC(C)C)C(=O)N[C@@H](C)C(=O)N[C@H](C)C(=O)N(C)[C@@H](CC(C)C)C(=O)N(C)[C@@H](CC(C)C)C(=O)N(C)[C@@H](C(C)C)C(=O)N1C [Compound 2.17.7, 1-dihydro-3-[D-Ala]-4[(2S,3S)-2-Amino-3-methyl-4-morpholin-4-yl-butanoyl]-cyclosporin] (cyclo(A[dA][NMeL][NMeL][NMeV][NMe(dihydroBmt)][Abu][dNMeA][X9]V[NMeL])) |  | 0.7 | 1.5 | > 50000 | 0.7 | 15 |  |  |  | 
6 | C/C=C/C[C@@H](C)[C@@H](O)[C@H]1C(=O)N[C@@H](CC)C(=O)N(C)[C@H](C)C(=O)N(C)[C@@H]([C@@H](C)CN2CCO[C@H](COC)C2)C(=O)N[C@@H](C(C)C)C(=O)N(C)[C@@H](CC(C)C)C(=O)N[C@@H](C)C(=O)N[C@H](C)C(=O)N(C)[C@@H](CC(C)C)C(=O)N(C)[C@@H](CC(C)C)C(=O)N(C)[C@@H](C(C)C)C(=O)N1C [Compound 2.17.8, 3-[D-Ala]-4[(2S,3S)-2-Amino-4-((S)-2-methoxymethyl-morpholin-4-yl)-3-methyl-butanoyl]-cyclosporin] (cyclo(A[dA][NMeL][NMeL][NMeV][MeBmt][Abu][dNMeA][X1]V[NMeL])) | 36400 | 0.6 | 1.2 | > 50000 | 0.7 | 22 |  |  |  | 
7 | C/C=C/C[C@@H](C)[C@@H](O)[C@H]1C(=O)N[C@@H](CC)C(=O)N(C)[C@H](C)C(=O)N(C)[C@@H]([C@H](C)CCCN2CCN(CCOC)CC2)C(=O)N[C@@H](C(C)C)C(=O)N(C)[C@@H](CC(C)C)C(=O)N[C@@H](C)C(=O)N[C@H](C)C(=O)N(C)[C@@H](CC(C)C)C(=O)N(C)[C@@H](CC(C)C)C(=O)N(C)[C@@H](C(C)C)C(=O)N1C [Compound 2.19.6, 3-[D-Ala]-4-[(2S,3R)-6-(4-(2-methoxyethyl)piperazin-1-yl)-3-methyl-2-(methylamino)hexanoyl]-cyclosporin] (cyclo(A[dA][NMeL][NMeL][NMeV][MeBmt][Abu][dNMeA][X62]V[NMeL])) | 1600 | 0.5 | 0.7 |  | 0.7 | 110 |  |  |  | 2200
8 | C/C=C/C[C@@H](C)[C@@H](O)[C@H]1C(=O)N[C@@H](CC)C(=O)N(C)[C@H](C)C(=O)N(C)[C@@H]([C@H](C)CCCOC(=O)N2CCN(C)CC2)C(=O)N[C@@H](C(C)C)C(=O)N(C)[C@@H](CC(C)C)C(=O)N[C@@H](C)C(=O)N[C@H](C)C(=O)N(C)[C@@H](CC(C)C)C(=O)N(C)[C@@H](CC(C)C)C(=O)N(C)[C@@H](C(C)C)C(=O)N1C [Compound 2.19.7, 3-[D-Ala]-4-[(2S,3R)-3-methyl-2-(methylamino)-6-((4-methylpiperazine-1-carbonyl)oxy)hexanoyl]-cyclosporin] (cyclo(A[dA][NMeL][NMeL][NMeV][MeBmt][Abu][dNMeA][X70]V[NMeL])) | 15900 | 0.7 | 1.1 |  | 0.7 | 11 |  |  |  | 2900
9 | C/C=C/C[C@@H](C)[C@@H](O)[C@H]1C(=O)N[C@@H](CC)C(=O)N(C)[C@H](C)C(=O)N(C)[C@@H]([C@H](C)CCCOC(=O)NC2CCN(C)CC2)C(=O)N[C@@H](C(C)C)C(=O)N(C)[C@@H](CC(C)C)C(=O)N[C@@H](C)C(=O)N[C@H](C)C(=O)N(C)[C@@H](CC(C)C)C(=O)N(C)[C@@H](CC(C)C)C(=O)N(C)[C@@H](C(C)C)C(=O)N1C [Compound 2.19.8, 3-[D-Ala]-4-[(2S,3R)-3-methyl-2-(methylamino)-6-(((1-methylpiperidin-4-yl)carbamoyl)oxy)hexanoyl]-cyclosporin] (cyclo(A[dA][NMeL][NMeL][NMeV][MeBmt][Abu][dNMeA][X10]V[NMeL])) |  | 0.4 | 0.8 | > 50000 | 0.4 |  |  |  |  | 7800
10 | C/C=C/C[C@@H](C)[C@@H](O)[C@H]1C(=O)N[C@@H](CC)C(=O)N(C)[C@H](C)C(=O)N(C)[C@@H]([C@H](C)COCC2CN(C(C)C)CCO2)C(=O)N[C@@H](C(C)C)C(=O)N(C)[C@@H](CC(C)C)C(=O)N[C@@H](C)C(=O)N[C@H](C)C(=O)N(C)[C@@H](CC(C)C)C(=O)N(C)[C@@H](CC(C)C)C(=O)N(C)[C@@H](C(C)C)C(=O)N1C (stereo partly drawn) [Compound 2.20.2, 3-[D-Ala]-4-[(2S,3S)-4-(((S)-4-isopropylmorpholin-2-yl)methoxy)-3-methyl-2-(methylamino)butanoyl]-cyclosporin] (cyclo(A[dA][NMeL][NMeL][NMeV][MeBmt][Abu][dNMeA][X33]V[NMeL])) | 6400 | 0.3 | 0.6 |  | 0.5 | 44 |  |  |  | 4300
11 | C/C=C/C[C@@H](C)[C@@H](O)[C@H]1C(=O)N[C@@H](CC)C(=O)N(C)[C@H](C)C(=O)N(C)[C@@H]([C@@H](CN2CCOCC2)OC)C(=O)N[C@@H](C(C)C)C(=O)N(C)[C@@H](CC(C)C)C(=O)N[C@@H](C)C(=O)N[C@H](C)C(=O)N(C)[C@@H](CC(C)C)C(=O)N(C)[C@@H](CC(C)C)C(=O)N(C)[C@@H](C(C)C)C(=O)N1C [Compound 2.21.1, 3-[D-Ala]-4-[(2S,3R)-3-methoxy-2-(methylamino)-4-morpholinobutanoyl]-cyclosporin] (cyclo(A[dA][NMeL][NMeL][NMeV][MeBmt][Abu][dNMeA][X76]V[NMeL])) | 15700 | 1.2 | 2.8 |  | 1.2 |  |  | 23 |  | 900
